# Reference: paper PMC12091851, “Replacing a Cereblon Ligand by a DDB1 and CUL4 Associated Factor 11 (DCAF11) Recruiter Converts a Selective Histone Deacetylase 6 PROTAC into a Pan‐Degrader” (Chemmedchem, 2025)
# Assays:
# Assay in all cases: HDAC enzyme inhibition assay
# Type in all cases: biochemical
# HDAC6 = target: T1, HDAC6 (Homo sapiens, UniProt Q9UBN7); design: purchased BPS Bioscience 50006
# T1 sequence (Q9UBN7 1-1215): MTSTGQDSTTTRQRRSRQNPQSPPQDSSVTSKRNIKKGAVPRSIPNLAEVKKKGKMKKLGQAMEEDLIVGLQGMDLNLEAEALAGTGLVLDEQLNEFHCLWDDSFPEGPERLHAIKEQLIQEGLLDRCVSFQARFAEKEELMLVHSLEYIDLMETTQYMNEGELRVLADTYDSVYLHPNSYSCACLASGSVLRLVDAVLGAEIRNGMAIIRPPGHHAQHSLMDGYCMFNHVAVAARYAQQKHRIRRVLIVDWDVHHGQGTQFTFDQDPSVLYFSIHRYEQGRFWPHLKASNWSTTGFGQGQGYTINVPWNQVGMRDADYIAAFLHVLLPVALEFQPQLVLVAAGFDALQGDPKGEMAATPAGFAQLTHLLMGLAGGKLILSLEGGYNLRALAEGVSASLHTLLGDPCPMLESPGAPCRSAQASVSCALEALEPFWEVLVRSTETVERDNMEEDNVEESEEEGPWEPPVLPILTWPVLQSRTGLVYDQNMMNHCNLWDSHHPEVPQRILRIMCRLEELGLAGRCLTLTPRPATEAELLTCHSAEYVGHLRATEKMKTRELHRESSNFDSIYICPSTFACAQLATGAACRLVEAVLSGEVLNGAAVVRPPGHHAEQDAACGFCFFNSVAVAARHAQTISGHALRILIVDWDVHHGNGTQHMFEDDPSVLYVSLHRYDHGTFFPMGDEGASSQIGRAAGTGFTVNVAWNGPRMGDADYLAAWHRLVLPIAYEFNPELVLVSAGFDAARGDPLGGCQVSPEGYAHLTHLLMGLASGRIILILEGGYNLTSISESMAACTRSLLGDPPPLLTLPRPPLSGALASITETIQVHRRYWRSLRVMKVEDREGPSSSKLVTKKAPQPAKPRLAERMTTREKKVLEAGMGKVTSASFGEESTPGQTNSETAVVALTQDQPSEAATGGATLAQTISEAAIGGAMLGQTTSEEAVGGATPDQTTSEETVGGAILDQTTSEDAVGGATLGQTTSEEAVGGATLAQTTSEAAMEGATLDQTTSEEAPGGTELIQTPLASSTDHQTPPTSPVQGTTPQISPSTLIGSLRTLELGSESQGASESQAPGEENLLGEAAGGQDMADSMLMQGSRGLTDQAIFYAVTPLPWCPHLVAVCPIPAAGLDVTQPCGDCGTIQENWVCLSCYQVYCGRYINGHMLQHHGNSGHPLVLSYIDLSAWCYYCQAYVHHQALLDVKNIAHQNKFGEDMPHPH
# Procedure: (§1) Bio-Rad) to Immobilon-FL PVDF membranes (Catalog# IPFL00005, Mill ipore Merck, Burlington, MA, USA) at 1.0 A for 30 min and treated with 5% milk-powder solution for 1 h at room temperature […]
# (§2) Signaling Technology) antibody solutions in 1:1000 –1:8000 dilutions at 4 °C overnight. […]
# (§3) Significance testing was performed with a one -way analysis of variance (ANOVA). Dunnett’s post -hoc test was employed to obtain significance levels of each mean compared to a reference mean value.
# (§4) 2.7. HDAC Enzyme Inhibition Assay […]
# (§5) [4] For test compounds and controls, serial dilutions of the respective DMSO stock solution in DMSO were prepared, and 1.0 μL /well of this serial dilution were transferred […]
# (§6) into OptiPlate-96 black microplates (PerkinElmer, Waltham, […], USA). A volume of 4 µL/well assay […]
# (§7) BSA) was added. In the case of HDAC1, 2, and 6, a volume of 35 μL/well of the fluorogenic substrate […]
# (§8) The total assay volume of 50 μL (max. 2 % DMSO) was incubated at 37 °C for 90 min. Subsequently, 50 μL /well of trypsin (0.4 mg/mL) in trypsin buffer (50 mM Tris−HCl, pH 8.0, 100 mM NaCl) was added, followed by additional 30 min of incubation at […]
# (§9) OPTIMA microplate reader (BMG labtech, Ortenburg, Germany). The half maximal inhibitory concentration (IC50) was determined by plotting dose response curves and nonlinear regression with GraphPad Prism (GraphPad Software).
# (§10) 2.8. MTT Cell Viability Assay […]
# HDAC1 = HDAC1 (Homo sapiens, UniProt Q13547); design: purchased BPS Bioscience 50051
# Procedure: as §1, §2, §3, §4, §5, §6, §7, §8, §9, §10
# HDAC2 = HDAC2 (Homo sapiens, UniProt Q92769); design: purchased BPS Bioscience 50052
# Procedure: as §1, §2, §3, §4, §5, §6, §7, §8, §9, §10
# HDAC1, sequence (Q13547 whole entry): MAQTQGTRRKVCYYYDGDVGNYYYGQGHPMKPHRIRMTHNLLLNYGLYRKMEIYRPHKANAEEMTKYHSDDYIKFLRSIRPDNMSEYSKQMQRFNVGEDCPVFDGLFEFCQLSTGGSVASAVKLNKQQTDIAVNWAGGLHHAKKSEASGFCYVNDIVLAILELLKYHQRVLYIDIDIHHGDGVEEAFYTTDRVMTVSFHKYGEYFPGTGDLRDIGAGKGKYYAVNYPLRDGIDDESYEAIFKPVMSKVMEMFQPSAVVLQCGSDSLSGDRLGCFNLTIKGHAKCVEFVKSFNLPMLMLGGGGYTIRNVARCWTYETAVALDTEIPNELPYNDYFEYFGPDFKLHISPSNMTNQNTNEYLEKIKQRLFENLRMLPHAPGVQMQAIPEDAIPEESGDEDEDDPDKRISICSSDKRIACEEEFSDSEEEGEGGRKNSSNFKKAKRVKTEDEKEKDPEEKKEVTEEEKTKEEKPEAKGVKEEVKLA
# HDAC2, sequence (Q92769 whole entry): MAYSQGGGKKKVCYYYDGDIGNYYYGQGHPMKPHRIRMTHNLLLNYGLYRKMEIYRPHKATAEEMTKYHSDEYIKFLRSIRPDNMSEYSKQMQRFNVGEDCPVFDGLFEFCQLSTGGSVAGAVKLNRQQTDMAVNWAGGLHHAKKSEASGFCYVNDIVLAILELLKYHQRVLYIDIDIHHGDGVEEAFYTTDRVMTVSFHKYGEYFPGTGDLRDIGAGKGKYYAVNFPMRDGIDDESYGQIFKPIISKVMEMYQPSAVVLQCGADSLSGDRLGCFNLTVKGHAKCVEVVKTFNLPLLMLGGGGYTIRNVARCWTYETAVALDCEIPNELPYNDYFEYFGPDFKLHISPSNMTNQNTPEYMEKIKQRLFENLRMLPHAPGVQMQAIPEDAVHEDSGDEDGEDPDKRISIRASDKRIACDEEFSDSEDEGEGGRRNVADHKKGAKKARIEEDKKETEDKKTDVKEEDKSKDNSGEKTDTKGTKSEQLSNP
IC50 (HDAC6),IC50 (HDAC1),IC50 (HDAC2),SMILES
53 ± 1 nM,1030 ± 40 nM,2150 ± 110 nM,O=C(CCCCCCNC(=O)c1ccc(NC(=O)CCCCCCCCCCCN(C(=O)CCl)C(C(=O)NCc2ccccc2)c2ccc(Cl)c(Cl)c2)cc1)NO (stereo not drawn) [Compound 1j]
7 ± 1 nM,159 ± 44 nM,298 ± 11 nM,O=C(CCCCCCNC(=O)c1ccc(N(C(=O)CCl)C(C(=O)NCc2ccccc2)c2ccc(Cl)c(Cl)c2)cc1)NO (stereo not drawn) [Compound 2]
